Several values for one entry are separate records, joined by “and”; a condition that tells them apart may be missing. Equal entries are not always repeated. After the bases stand the sugars from the 5' end (letter, count) and the backbone: PS all phosphorothioate, else s phosphorothioate and o phosphodiester by linkage. Methylation of C is not given here. k = constrained ethyl (cEt); d = 2'-deoxy (DNA)

In the data set the target is MALAT1. The settings on record: ASO, A431, 0.005 µM.
Regarding GTAAAAACAGGTCATC (sugars k3 d10 k3, PS), the target mRNA inhibition turned out to be 21%.
Next, GCACTAAAGATCACTG (sugars k3 d10 k3, PS): 23%; AATACGACTGCTTAAA (sugars k3 d10 k3, PS): 30%.
For GAGGGCCTCTATTGCC (sugars k3 d10 k3, PS), the target mRNA inhibition was 14%.
Next, TTCTAACTTCTGCACC (sugars k3 d10 k3, PS): 33%; CGCTCCTTCCTGGAAT (sugars k3 d10 k3, PS): -19%.
On to CACCACCTGGAATGGC (sugars k3 d10 k3, PS), for which the target mRNA inhibition worked out at 8%.
With TAAACGGGTCATCAAA (sugars k3 d10 k3, PS) the figure was 34%.
Next, AAAAGATCGCCTTCAA (sugars k3 d10 k3, PS): 34%; GAACAAGTCCTACAAT (sugars k3 d10 k3, PS): 32%; AAGAATCCCCCCCAAG (sugars k3 d10 k3, PS): 28%.
Next, GCCAGTGGCCCACTCT (sugars k3 d10 k3, PS): -8%.
GTAACCTATTGACTAT (sugars k3 d10 k3, PS): the target mRNA inhibition was found to be 33%.
Regarding AATTCGATCACCTTCC (sugars k3 d10 k3, PS), the target mRNA inhibition is 16%.
With TTATCCTGATATTGGA (sugars k3 d10 k3, PS) the figure was -12%; with TCCCCCATTATATTAG (sugars k3 d10 k3, PS), 14%; with GCTCGCCTCCTCCGTG (sugars k3 d10 k3, PS), 27%.
GCCCCTGCGCTGGCTG (sugars k3 d10 k3, PS): the target mRNA inhibition is 12%.
With CTACTCTTCTAAGTCT (sugars k3 d10 k3, PS) the figure was 49%; with GTTAACAATTTGCAGG (sugars k3 d10 k3, PS), 40%.
Next, TCTGTTACACCTTGAG (sugars k3 d10 k3, PS): 48% and 64%; ACAAAACGAATTCAGG (sugars k3 d10 k3, PS): 31%; TCTAAATTGGTTCTGG (sugars k3 d10 k3, PS): 55% and 64%.
With GCTGAGGCTTCCCGGC (sugars k3 d10 k3, PS) the figure was 15%.
As for GCAATTCAAAATCCTG (sugars k3 d10 k3, PS), the target mRNA inhibition is 51%.
With AGCTACCATCAGAAGA (sugars k3 d10 k3, PS), the target mRNA inhibition was determined as 34%.
Take CGGTTAAAAATAGGTT (sugars k3 d10 k3, PS): the target mRNA inhibition amounted to 6%.
On to CTGAAAGAACTAGTGG (sugars k3 d10 k3, PS), for which the target mRNA inhibition came out at 20%.
Next, TTTACACCTCAGTACG (sugars k3 d10 k3, PS): 35%; TACAAGTTACATGTTC (sugars k3 d10 k3, PS): 20%.
Next, AGCTTTACCTTCTAAC (sugars k3 d10 k3, PS): 47%; AGCTGTCAATTAATGC (sugars k3 d10 k3, PS): 10%; ACAATCACTACTCCAA (sugars k3 d10 k3, PS): 31%.
With ACAGCTTATGGAACTT (sugars k3 d10 k3, PS) the figure was 27%.
For the sequence GGACGGTTGAGAAGTG (sugars k3 d10 k3, PS), the target mRNA inhibition is -4%.
Next, CACTGGTACACCCAGT (sugars k3 d10 k3, PS): 15%.
With TCACTACTCCAAGCAT (sugars k3 d10 k3, PS) the figure was 21%; with GGGAGTTACTTGCCAA (sugars k3 d10 k3, PS), 10%.
In the case of TCCGTAACTTTAAATT (sugars k3 d10 k3, PS), the target mRNA inhibition was 36%.
Turning to TACTGCATTTACTTGC (sugars k3 d10 k3, PS), the target mRNA inhibition was 20%.
For the sequence GCTTATGGAACTTGAA (sugars k3 d10 k3, PS), the target mRNA inhibition was 10%.
Next, CACGGGCTGTCTGCTT (sugars k3 d10 k3, PS): 18%; ACGAAGAGATACCTGT (sugars k3 d10 k3, PS): 18%; TCCCCCAACTGCTTGC (sugars k3 d10 k3, PS): 11%.
Next, GTTACACCTTGAGTCA (sugars k3 d10 k3, PS): 53%; AAAGCCCACCCTCTAA (sugars k3 d10 k3, PS): -26%; ACAAACTTGCCATCTA (sugars k3 d10 k3, PS): 39%.
As to TTGAATTACTTCCGTT (sugars k3 d10 k3, PS), the target mRNA inhibition is 54% and 35%.
With AGCACCTGGGTCAGCT (sugars k3 d10 k3, PS), the target mRNA inhibition is -5%.
With ATGCACTGGTACACCC (sugars k3 d10 k3, PS) the figure was 24%.
With AGCGAGTTCAAGTGGC (sugars k3 d10 k3, PS) the figure was 27%; with TCCTGAAAGTGCTCAC (sugars k3 d10 k3, PS), -7%; with TTCACCAAATCGCACT (sugars k3 d10 k3, PS), 29%.
With GGGAATACTCTTCCAA (sugars k3 d10 k3, PS) the figure was 14%; with GAGGGAGTTGAGGCAA (sugars k3 d10 k3, PS), 24%; with GAAAAAGCTTGTTCAC (sugars k3 d10 k3, PS), 28%.
Turning to CACCAAAGACCTCGAC (sugars k3 d10 k3, PS), the target mRNA inhibition was determined as 18%.
Next, GGCCGTTGGCTGCCAG (sugars k3 d10 k3, PS): 21%.
Next, GAAAACCCACTCTTGG (sugars k3 d10 k3, PS): 10%; CAAAATCCTGAATGGC (sugars k3 d10 k3, PS): 10%; CCCCCAAGATTGCCCC (sugars k3 d10 k3, PS): 11%.
On to AGAGTGTTCGCAGACA (sugars k3 d10 k3, PS), for which the target mRNA inhibition is 57%.
With TTTGAACCCCGTCCTG (sugars k3 d10 k3, PS) the figure was 6%; with CTTCGGTTTAATCTCT (sugars k3 d10 k3, PS), 73% and 54%; with CTACAACACCCGGAAA (sugars k3 d10 k3, PS), 33%.
Regarding ACCAGGAGTGCCAACC (sugars k3 d10 k3, PS), the target mRNA inhibition was 8%.
Next, CCCCAAAAGCTCTATA (sugars k3 d10 k3, PS): 8%; CCCTTCTATTGGTATT (sugars k3 d10 k3, PS): 7%; CCCCATTATATTAGAA (sugars k3 d10 k3, PS): -6%.
With TTCCCATAATTGTAGT (sugars k3 d10 k3, PS), the target mRNA inhibition worked out at 18%.
Next, CAAAAAGTAGTTCTTC (sugars k3 d10 k3, PS): -18%.
Next, TTAGGTATGAGCTTCA (sugars k3 d10 k3, PS): 18%; CATCCAAACTCTACAT (sugars k3 d10 k3, PS): 23%.
With TATGGATCATGCCCAC (sugars k3 d10 k3, PS) the figure was 27%; with TATAGTTTACCACCTT (sugars k3 d10 k3, PS), 14%.
Take CCCATAACTGATCTGA (sugars k3 d10 k3, PS): the target mRNA inhibition was 42%.
Next, TTCGGATGCTTCACTC (sugars k3 d10 k3, PS): 48%.
Consider TTTCCTCAAGCTCCGC (sugars k3 d10 k3, PS), for which the target mRNA inhibition was found to be 54%.
Turning to CTGGAAAAGCTAGGGA (sugars k3 d10 k3, PS), the target mRNA inhibition is -13%.
With GGCCTTTTAAAGTAGA (sugars k3 d10 k3, PS) the figure was 28%; with ATTTATTTCGGCTTCT (sugars k3 d10 k3, PS), 71% and 90%.
Next, AGCCTTTATCACTCAG (sugars k3 d10 k3, PS): 35%.
With ACTCTGATCTGCGGCC (sugars k3 d10 k3, PS) the figure was 13%.
Regarding AAGAACTAGCACCTGC (sugars k3 d10 k3, PS), the target mRNA inhibition amounted to 13%.
With CATGGATTTCAAGGTC (sugars k3 d10 k3, PS) the figure was 11%; with TTAAGAGCTGCTATAA (sugars k3 d10 k3, PS), 6%.
As for TGAGTATAAGCCTGAA (sugars k3 d10 k3, PS), the target mRNA inhibition amounted to 25%.
With CATACCTTAACATCTT (sugars k3 d10 k3, PS) the figure was 32%; with TAAAAGATCGCCTTCA (sugars k3 d10 k3, PS), 41%.
With ACCAACTAAGCGAATG (sugars k3 d10 k3, PS) the figure was -12%; with CTTCTGAACCGGAGCA (sugars k3 d10 k3, PS), -27%.
Next, ACGCCAACACAGTTTG (sugars k3 d10 k3, PS): 48%; GCTGCAAACTTTAGAC (sugars k3 d10 k3, PS): -9%.
In the case of GCTGAAATTGTCTCAA (sugars k3 d10 k3, PS), the target mRNA inhibition worked out at 45%.
Next, AGATTTGAGCTGCAAA (sugars k3 d10 k3, PS): 11%; CACAAAACCCCCGGAA (sugars k3 d10 k3, PS): 19%.
With TAAATTGGTAGCTTTC (sugars k3 d10 k3, PS) the figure was 74% and 80%; with ATTCAAGCTGAACTAT (sugars k3 d10 k3, PS), 10%.
Next, CATCAGTAGTAAGAAT (sugars k3 d10 k3, PS): 14%.
